Experimental data as given in publication PMC11714206, “Massively Parallel Screening of Toll/Interleukin‐1 Receptor (TIR)‐Derived Peptides Reveals Multiple Toll‐Like Receptors (TLRs)‐Targeting Immunomodulatory Peptides” (Advanced Science, 2024).

Biological target: T1, MyD88^TIR (Homo sapiens, UniProt Q99836)
T1 construct: MyD88 (residues 148–296); 6xHis; made in house; host or cells: E. coli BL21 (DE3)
Experiment: T‐Surf phage library (P8 and P3) selection against MyD88^TIR, four rounds, NGS read counts
Type: binding
Conditions: for P8_MyD88 Rank (after) / P8_MyD88 Rank (before): P8 library; for Population: P8_MyD88 pool: P8 T-Surf phage library, 4th round of selection against MyD88 TIR, share of NGS reads
Procedure: T‐Surf libraries were screened against the immobilized TIR domains of two major human TLR adaptor proteins, MAL^TIR and MyD88^TIR, allowing cross‐species selection of TIR‐binding motifs with 190 946 TIR‐derived peptides in a single binding assay (Scheme 1). Enriched phage pools from the fourth round of selection were analyzed using NGS after barcoding the peptide‐coding regions of the phage pools.
Phage display screening was performed by coating two wells of a 96‐well plate (Maxisorp, Thermo Fisher Scientific) with 100 µL of 5 µg mL^−1 TIR domains overnight; then, the coated wells were blocked with 200 µL of blocking buffer (0.2% BSA in PBS) and set aside for 1 h at 4 °C with gentle shaking. Next, 100 µL of the phage library was added to the wells and incubated for 1 h at room temperature (RT; 20 – 22 °C) with gentle shaking. The plate was washed four times with PBS containing 0.5% Tween‐20; the bound phages were eluted by adding 100 µL of 100 mM HCl to each well. The elute was neutralized with 10 µL of 1.0 M Tris‐HCl (pH 11.0). E. coli TG1 cells were grown to the log phase (A600 = ≈0.6), and 1 mL of the culture was incubated with 100 µL of the eluted phages for 30 min at 37 °C, with shaking at 200 rpm. Next, 1 µL of M13KO7 helper phages was added, followed by incubation for 45 min at 37 °C, with shaking. Subsequently, the cells were transferred to 25 mL of 2× yeast extract tryptone/carbenicillin/kanamycin medium and incubated overnight at 37 °C with shaking at 200 rpm. The amplified phages were precipitated with 20% PEG‐8000/2.5 M NaCl to be used for the next round of selection.
The naïve T‐Surf libraries in P8 and P3 and the enriched phage pools after four rounds were barcoded for NGS as previously described.^[ [59] ^] Briefly, 5 µL of the phage pool was used as a template for 20 cycles of a 50 µL PCR reaction using […] each of forward and reverse barcoded primers and PrimeSTAR Max DNA Polymerase. The PCR products were purified using Expin Gel SV (GeneAll). The NGS samples were quantified using qPCR, following the qPCR Quantification Protocol Guide (KAPA Library Quantification kits for Illumina Sequencing Platform), and qualified using the TapeStation High Sensitivity D1000 ScreenTape (Agilent Technologies). The indexed libraries were further sequenced by Macrogen (Seoul, Republic of Korea) using the NovaSeq platform (Illumina) with 100 bp paired‐end reads. The reads were demultiplexed by barcodes and filtered for an average Phred quality score of at least 30, followed by trimming the flanking consensus sequences using Cutadapt (version 2.3). Peptide sequence populations were analyzed according to the read counts.

[1] = P8_MyD88: rank by count after grouping
[2] = P8_MyD88: rank by count before grouping
[3] = 4R selection against MyD88, rank after grouping
[4] = 4R selection against MyD88, rank before grouping
[5] = selection against MyD88, rank after grouping
[6] = selection against MyD88, rank before grouping
[7] = P8_MyD88: rank by NGS read count after grouping
[8] = P8_MyD88: rank by NGS read count before grouping
[9] = selection against MyD88 TIR, rank by count after grouping
[10] = selection against MyD88 TIR, rank by count before grouping
[11] = selection against MyD88, rank by count after grouping
[12] = selection against MyD88, rank by count before grouping

T1 sequence (Q99836 148-296): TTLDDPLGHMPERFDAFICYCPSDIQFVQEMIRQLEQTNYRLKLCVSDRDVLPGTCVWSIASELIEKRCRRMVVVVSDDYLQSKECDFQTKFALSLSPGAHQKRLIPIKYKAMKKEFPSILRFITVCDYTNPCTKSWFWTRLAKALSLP

## DPQDLDRFYERLLSLL
[1]
  Rank (after): 428
[2]
  Rank (before): 2840

## DPQDLDRSYERLVSLC
[3]
  P8_MyD88 Rank (after): 670
[4]
  P8_MyD88 Rank (before): 2842

## DPQDLDWCYERLVSRC
[1]
  Rank (after): 461
[2]
  Rank (before): 2817

## DPQDLDWFFERLVSLL
[1]
  Rank (after): 117
[2]
  Rank (before): 707

## DPQDLDWFLNVWLTW
[5]
  P8_MyD88 Rank (after): 575
[6]
  P8_MyD88 Rank (before): 2743

## DPQDLDWFSERLVILF
[7]
  Rank (after): 1012
[8]
  Rank (before): 2747

## DPQDLDWFWVRLIEAL
[5]
  P8_MyD88 Rank (after): 493
[6]
  P8_MyD88 Rank (before): 2746

## DPQDLDWFYARLVRLF
[9]
  P8_MyD88 Rank (after): 270
[10]
  P8_MyD88 Rank (before): 2751

## DPQDLDWFYDRLLYSLHVTE
[1]
  Rank (after): 420
[2]
  Rank (before): 1088

## DPQDLDWFYECPVSMF
[5]
  P8_MyD88 Rank (after): 535
[6]
  P8_MyD88 Rank (before): 2754

## DPQDLDWFYEHLFSQM
[1]
  Rank (after): 411
[2]
  Rank (before): 2801

## DPQDLDWFYEHLVSLL
[1]
  Rank (after): 114
[2]
  Rank (before): 570

## DPQDLDWFYERLASGI
[7]
  Rank (after): 882
[8]
  Rank (before): 2782

## DPQDLDWFYERLASLL
[1]
  Rank (after): 135
[2]
  Rank (before): 720

## DPQDLDWFYERLEPV
[5]
  P8_MyD88 Rank (after): 530
[6]
  P8_MyD88 Rank (before): 2783

## DPQDLDWFYERLFSQT
[9]
  P8_MyD88 Rank (after): 269
[10]
  P8_MyD88 Rank (before): 2858

## DPQDLDWFYERLFTQM
[9]
  P8_MyD88 Rank (after): 267
[10]
  P8_MyD88 Rank (before): 2763

## DPQDLDWFYERLISRILQ
[5]
  P8_MyD88 Rank (after): 549
[6]
  P8_MyD88 Rank (before): 2787

## DPQDLDWFYERLLS
[1]
  Rank (after): 471
[2]
  Rank (before): 2786

## DPQDLDWFYERLLSLS
[1]
  Rank (after): 422
[2]
  Rank (before): 2764

## DPQDLDWFYERLLSR
[9]
  P8_MyD88 Rank (after): 236
[10]
  P8_MyD88 Rank (before): 467

## DPQDLDWFYERLVAC
[7]
  Rank (after): 1005
[8]
  Rank (before): 2779

## DPQDLDWFYERLVILF
  Population: 0.0131%

## DPQDLDWFYERLVNLF
  Population: 0.00925%

## DPQDLDWFYERLVNLL
[1]
  Rank (after): 98
[2]
  Rank (before): 349

## DPQDLDWFYERLVSL
[9]
  P8_MyD88 Rank (after): 233
[10]
  P8_MyD88 Rank (before): 716

## DPQDLDWFYERLVSLFL
  Population: 0.02%

## DPQDLDWFYERLVSPL
[1]
  Rank (after): 99
[2]
  Rank (before): 396

## DPQDLDWFYERLVSQM
[1]
  Rank (after): 183
[2]
  Rank (before): 466

## DPQDLDWFYERQVRLF
[7]
  Rank (after): 915
[8]
  Rank (before): 2794

## DPQDLDWFYERQVSLL
[1]
  Rank (after): 106
[2]
  Rank (before): 568

## DPQDLDWFYERREPA
[3]
  P8_MyD88 Rank (after): 662
[4]
  P8_MyD88 Rank (before): 2790

## DPQDLDWFYERRVCLF
[11]
  P8_MyD88 Rank (after): 733
[12]
  P8_MyD88 Rank (before): 2791

## DPQDLDWFYERVVGLF
[7]
  Rank (after): 914
[8]
  Rank (before): 2759

## DPQDLDWFYETSGEPD
[7]
  Rank (after): 911
[8]
  Rank (before): 2804

## DPQDLDWFYKRLVSLL
[1]
  Rank (after): 121
[2]
  Rank (before): 724

## DPQDLDWIYERLVCLF
[11]
  P8_MyD88 Rank (after): 732
[12]
  P8_MyD88 Rank (before): 2830

## DPQDLDWIYERLVSRF
[1]
  Rank (after): 436
[2]
  Rank (before): 2831

## DPQDLDWLYERLVRLF
[9]
  P8_MyD88 Rank (after): 238
[10]
  P8_MyD88 Rank (before): 2828

## DPQDLDWLYERLVSLF
  Population: 0.00617%

## DPQDLDWLYERPVSQF
[5]
  P8_MyD88 Rank (after): 552
[6]
  P8_MyD88 Rank (before): 2816

## DPQDLDWVYERLVSLI
[9]
  P8_MyD88 Rank (after): 271
[10]
  P8_MyD88 Rank (before): 2825

## DPQDLECFYERRVSLF
[7]
  Rank (after): 916
[8]
  Rank (before): 2845

## DPQDLECVYERLVSLF
[7]
  Rank (after): 1006
[8]
  Rank (before): 2846

## DPQDLELFYEQLVRPF
[1]
  Rank (after): 459
[2]
  Rank (before): 2844

## DPQDLEWFYERLFSLI
[9]
  P8_MyD88 Rank (after): 209
[10]
  P8_MyD88 Rank (before): 1112

## DPQDLEWFYERLFSR
[1]
  Rank (after): 450
[2]
  Rank (before): 1113

## DPQDLEWFYERLGSLF
[9]
  P8_MyD88 Rank (after): 247
[10]
  P8_MyD88 Rank (before): 2852

## DPQDLEWFYERLLAR
[5]
  P8_MyD88 Rank (after): 515
[6]
  P8_MyD88 Rank (before): 2879

## DPQDLEWFYERLVILF
[1]
  Rank (after): 446
[2]
  Rank (before): 2849

## DPQDLEWFYERLVSLF
  Population: 0.0112%

## DPQDLEWFYERLVSLFL
[9]
  P8_MyD88 Rank (after): 244
[10]
  P8_MyD88 Rank (before): 2882

## DPQDLEWFYERLVSLI
  Population: 0.01%

## DPQDLEWFYERLVSLIP
[1]
  Rank (after): 453
[2]
  Rank (before): 2884

## DPQDLEWFYERLVSLL
  Population: 0.0224%

## DPQDLEWFYERLVSRF
[9]
  P8_MyD88 Rank (after): 266
[10]
  P8_MyD88 Rank (before): 2851

## DPQDLEWFYERPVSLF
[9]
  P8_MyD88 Rank (after): 259
[10]
  P8_MyD88 Rank (before): 2853

## DPQDLEWLYERLVSLF
[1]
  Rank (after): 180
[2]
  Rank (before): 1108

## DPQDLEWNFERPVSLF
[7]
  Rank (after): 972
[8]
  Rank (before): 2856

## DPQDLGCFYERLVSLF
[3]
  P8_MyD88 Rank (after): 611
[4]
  P8_MyD88 Rank (before): 2721

## DPQDLGWFYERLISQILK
[3]
  P8_MyD88 Rank (after): 624
[4]
  P8_MyD88 Rank (before): 2726

## DPQDLGWFYERLLSLF
[1]
  Rank (after): 441
[2]
  Rank (before): 2722

## DPQDLGWFYERLVSLF
  Population: 0.00617%

## DPQDLHGIYERLVILF
[3]
  P8_MyD88 Rank (after): 666
[4]
  P8_MyD88 Rank (before): 2903

## DPQDLLRFYEHLVSLF
[1]
  Rank (after): 472
[2]
  Rank (before): 2901

## DPQDLNGFMNVCLAR
[5]
  P8_MyD88 Rank (after): 488
[6]
  P8_MyD88 Rank (before): 2947

## DPQDLQCSSERLVSLI
[11]
  P8_MyD88 Rank (after): 691
[12]
  P8_MyD88 Rank (before): 2906

## DPQDLQSLYEGLVSLV
[1]
  Rank (after): 467
[2]
  Rank (before): 2944

## DPQDLQWFCERLVSLF
[9]
  P8_MyD88 Rank (after): 281
[10]
  P8_MyD88 Rank (before): 2908

## DPQDLQWFYECLVSLL
[5]
  P8_MyD88 Rank (after): 514
[6]
  P8_MyD88 Rank (before): 2911

## DPQDLQWFYERLVSLL
  Population: 0.03%
